Our source for the inhibition values is ChEMBL document CHEMBL1131678, “Arachidonic acid amide inhibitors of gap junction cell-cell communication” (1999).

A word on the inhibition: it is the relative decrease from the control value, in per cent.

For test [1], the species on record is Rattus norvegicus. Kind of test: Inhibition of rat glial cell gap junction at the concentration of 50 uM. In kind it is functional.
The species entered for test [2] is Rattus norvegicus. The test is described as follows: Tested for inhibition of rat glial cell gap junction at the concentration of 20 uM. In kind it is functional.

`CCCCC/C=C\C/C=C\C/C=C\C/C=C\CCCC(=O)NCCCC` gave an inhibition at 50 µM in test [1] of 10%.
On the same count and under the same terms, to `CCCCCCCC/C=C\CCCCCCCC(=O)NO` belongs 100%.
Compound `CCCCCCCC/C=C\CCCCCCCC(=O)NCCC` gave an inhibition at 20 µM in test [2] of 50%. At 50 µM the inhibition in test [1] was 90%.
Compound `CCCCCCCC/C=C\CCCCCCCC(=O)N(CC)CC` had an inhibition at 20 µM in test [2] of 15%. In addition, the inhibition at 50 µM in test [1] stood at 100%.
On the same counts, the results for `CCCCCCCC/C=C\CCCCCCCC(=O)N(CCO)CCO` are 0% and 8%.
For the compound `CCCCC/C=C\C/C=C\C/C=C\C/C=C\CCCC(=O)N1CCCC1`, in test [1], the inhibition at 50 µM is 100%.
In the case of `CCCCCCCC/C=C\CCCCCCCC(=O)N(C)C`, 20 µM produced 70% inhibition in test [2]. This compound came in with an inhibition at 50 µM in test [1] of 100%.
`CCCCCCCC/C=C\CCCCCCCC(=O)NCCCC` showed an inhibition at 50 µM in test [1] of 100%.
In the case of `CCCCCCCC/C=C\CCCCCCCC(=O)NCCO` [OLEOYLETHANOLAMIDE], at 20 µM the inhibition in test [2] was 0%. In test [1], this compound had an inhibition at 50 µM of 100%.
For the compound `CCCCC/C=C\C/C=C\C/C=C\C/C=C\CCCC(=O)NCCC`, the inhibition at 50 µM in test [1] was found to be 100%.
For `CCCCCCCC/C=C\CCCCCCCC(=O)O` [OLEIC ACID], testing at 20 µM in test [2] gave an inhibition of 0%. In test [1], this compound returned an inhibition at 50 µM of 0%.
`CCCCCCCC/C=C\CCCCCCCC(=O)N(C)OC` returned an inhibition at 20 µM in test [2] of 100%. The same compound gave an inhibition at 50 µM in test [1] of 100%.
`CCCCCCCC/C=C\CCCCCCCC(=O)NCCCO`: the inhibition at 50 µM in test [1] amounted to 100%.
Still for that read-out and setting: to `CCCCC/C=C\C/C=C\C/C=C\C/C=C\CCCC(=O)NC` belongs 100%.
In test [2], `CCCCC/C=C\C/C=C\C/C=C\C/C=C\CCCC(=O)N(CCO)CCO` yielded an inhibition at 20 µM of 0%. The compound further showed an inhibition at 50 µM in test [1] of 0%.
Regarding `CCCCC/C=C\C/C=C\C/C=C\C/C=C\CCCC(=O)N(C)C(C)C`, the inhibition at 50 µM in test [1] was determined as 100%.
`C=CCNC(=O)CCCCCCC/C=C\CCCCCCCC` displayed an inhibition at 50 µM in test [1] of 100%.
Same read-out and setting: to `CCCCC/C=C\C/C=C\C/C=C\C/C=C\CCCC(=O)N(C)C` belongs 100%.
`CCCCCCCC/C=C\CCCCCCCC(=O)NC`: the inhibition at 20 µM in test [2] amounted to 70%. This compound displayed an inhibition at 50 µM in test [1] of 100%.
In the case of `CCCCCCCC/C=C\CCCCCCCC(=O)N1CCCC1`, the inhibition at 20 µM in test [2] was 0%. In test [1], this compound displayed an inhibition at 50 µM of 100%.
Take `CCCCCCCC/C=C\CCCCCCCC(=O)NC(C)C`: in test [1], testing at 50 µM gave an inhibition of 100%.
On the same count and under the same terms, with `CCCCC/C=C\C/C=C\C/C=C\C/C=C\CCCC(=O)N(CC)CC` the figure was 100%.
With `CCCCCCCC/C=C\CCCCCCCC(=O)NCC`, testing at 20 µM in test [2] gave an inhibition of 50%. At 50 µM the inhibition in test [1] was 100%.
Compound `CCCCC/C=C\C/C=C\C/C=C\C/C=C\CCCC(=O)N(CCC)CCC` showed an inhibition at 50 µM in test [1] of 10%.
As for `CCCCCCCC/C=C\CCCCCCCC(=O)Nc1ccccc1` [OLEIC ACID ANILIDE], at 50 µM the inhibition in test [1] was 0%.
On to `CCCCC/C=C\C/C=C\C/C=C\C/C=C\CCCC(N)=O` [ARACHIDONAMIDE], for which, in test [2], the inhibition at 20 µM came out at 90%. This compound also yielded an inhibition at 50 µM in test [1] of 100%.
In test [1], `CCCCC/C=C\C/C=C\C/C=C\C/C=C\CCCC(=O)NCC` had an inhibition at 50 µM of 100%.
Turning to `CCCCC/C=C\C/C=C\C/C=C\C/C=C\CCCC(=O)NC(C)C`, in test [1], at 50 µM the inhibition was 100%.
Consider `CCCCCCCC/C=C\CCCCCCCC(=O)NCCCc1ccccc1`, for which, in test [1], the inhibition at 50 µM was 0%.
Turning to `CCCCC/C=C\C/C=C\C/C=C\C/C=C\CCCC(=O)O` [ARACHIDONIC ACID], in test [2], at 20 µM the inhibition was 0%. This compound also displayed an inhibition at 50 µM in test [1] of 0%.
Turning to `CCCCC/C=C\C/C=C\C/C=C\C/C=C\CCCC(=O)NC1CC1`, in test [1], the inhibition at 50 µM is 100%.
The same measure, in the same setting: with `C=CCNC(=O)CCC/C=C\C/C=C\C/C=C\C/C=C\CCCCC` the figure was 90%; with `CCCCCCCC/C=C\CCCCCCCC(=O)N(C)C(C)C`, 100%.
For `CCCCCCCC/C=C\CCCCCCCC(N)=O` [OLEAMIDE], 20 µM produced 100% inhibition in test [2]. In addition, the inhibition at 50 µM in test [1] was found to be 100%.
The compound `CCCCC/C=C\C/C=C\C/C=C\C/C=C\CCCC(=O)N(C)OC` registered an inhibition at 50 µM in test [1] of 100%.
Same read-out and setting: with `CCCCCCCC/C=C\CCCCCCCC(=O)NC1CC1` the figure was 100%.
In the case of `CCCCC/C=C\C/C=C\C/C=C\C/C=C\CCCC(=O)NCCO` [ANANDAMIDE], in test [2], 20 µM produced 35% inhibition. This compound also returned an inhibition at 50 µM in test [1] of 100%.
